“And” between values parts separate entries of the source, which are not always exact repeats. Equal values may be shown once.
Experiments:
[1] = tested on: rabbit anti-cAMP sera (antigen:antibody binding); experiment: Scintillation proximity radioimmunoassay for cAMP: standard curves with lysis reagents and sequestrants; conditions: for [125I]cAMP bound to SPA beads, counts per minute: no sequestrant; for restoration of antigen:antibody binding by different sequestrants: 2.5% (w/v) sequestrant, standards in 1% DTAB
Method: All assays were carried out in microtitre plates compatible with a microtitre plate beta scintillation counter. Standards (50 μl; 0.2-12.8 pmol/well), antisera (50 μl; at 1:11000 dilution), tracer (50 ul; 10000-20000 cpm) are added to anti-rabbit coated SPA beads (50 μl; 20 mg/ml). Non-specific binding was determined in the absence of specific rabbit antisera. SPA anti-rabbit reagent is placed onto a magnetic stirrer to ensure a homogeneous suspension before pipetting. All wells contained a total volume of 200 μl. The plates were sealed and incubated at room temperature (15-30° C.) for 15-20 hours. The amount of [^125I]cAMP bound to the SPA fluomicrospheres was determined by counting in a microtitre plate beta scintillation counter for 2 minutes.
Experiments were set up with:— • a) Working standards (4-256 pmol/ml; 0.2-12.8 pmol/well) were prepared in assay buffer (0.05M sodium acetate buffer containing 0.01% sodium azide) only (control) or assay buffer containing lysis reagent (e.g. DTAB, CPC or SDS; see experiment 1) at various concentrations. • b) Rabbit anti-cAMP sera prepared in assay buffer only (control) or assay buffer containing sequestrating agent at various concentrations depending on the experiment. • c) Radioactive tracer: adenosine 3′ 5′-cyclic phosphoric acid 2′-O-succinyl-3-[^125I] iodotyrosine methyl ester prepared in assay buffer only (control) or assay buffer containing sequestrating agent at various concentrations depending on the experiment. • d) Donkey anti-rabbit IgG coupled to scintillation proximity fluomicrospheres prepared in assay buffer only (control) or assay buffer containing sequestrating agent at various concentrations depending on the experiment. Experiment 1: Inhibition of Antigen and Antibody Binding by Several Lysis Reagents Method
In these experiments, standard curves were prepared for cAMP using the SPA immunoassay technique, described above, where working standards of cAMP were prepared in several lysis reagents at 1% (w/v) or 2% (w/v) final concentration. The detergents investigated included dodecyl trimethyl ammonium bromide (DTAB; Sigma Chemical Co. D8638), benzethonium chloride (BZC; Aldrich; B470-8), cetyl pyridinium chloride (CPC; Sigma Chemical Co; C9002), sodium dodecyl sulphate (SDS, Sigma chemical Co; L4509) and N-dodecyl-N,N-dimethyl-3-ammonio-1-propanesulphonate (DDAPS; Sigma Chemical Co.; D4516).
In these experiments, standard curves for cAMP were prepared using the SPA immunoassay technique described above, where working standards of cAMP were prepared in 1% (w/v), 1.5% (w/v) or 2% (w/v) lysis reagents (DTAB, SDS or CPC). The control consisted of no lysis reagent or cyclodextrin added. The effect including 2.5% (w/v) alpha-cyclodextrin (alpha-CD) (Sigma Chemical Co.; C4642) on antigen:antibody binding was investigated. Here, tracer, antisera and SPA beads were prepared in assay buffer containing 2.5% (w/v) alpha-CD. A second control tested the effect of 2.5% (w/v) alpha-CD on the standard curve without addition of lysis reagent.
In this experiment, standard curves for cAMP were prepared using the SPA radioimmunoassay where working standards of cAMP were prepared in 1% (w/v) DTAB. The effect of including 1% (w/v), 2% (w/v), 2.5% (w/v) and 5% (w/v) alpha-cyclodextrin on antigen:antibody binding was investigated. Here, tracer, antisera and SPA beads were prepared in assay buffer containing alpha-CD at the above concentrations. The control consisted of no lysis or cyclodextrin added to the assay.
In this experiment, standard curves for cAMP were prepared using the SPA immunoassay technique where working standards were prepared 1% (wt) lysis reagent (DTAB). The effect of including 2.5% (w/v) alpha-cyclodextrin (CD) 2.5% (w/v) beta-cyclodextrin (beta-CD) (Sigma is Chemical Co.; C4767) and 2.5% (w/v) gamma-cyclodextrin (gamma-CD) (Sigma Chemical Co.; 4892) on antigen:antibody binding was investigated. […]

[2] = tested on: Chinese hamster ovary (CHO) cells; experiment: "Total" cellular cAMP from forskolin-stimulated CHO cells; format: cell-based; conditions: 100 μM forskolin, 20 minutes
Method: Chinese hamster ovary (CHO) cells were cultured in HAM's media containing 10% (v/v) foetal calf serum (FCS). For cAMP assays, cells were seeded into clear-bottomed 96-well tissue-culture plates with opaque walls (tissue-culture grade; see materials) in HAM's media, (see experiment 5) at 40 μl/well (between 10^4 and 10^6 cells/well). Cells were cultured overnight at 37° C. in a 95% air/5% CO2 atmosphere. The next day, sequestration and lysis buffers (2.5% alpha-cyclodextrin, 1% and 10% DTAB in assay buffer) were prepared. Antisera (at 1/11000 dilution), tracer (10000-20000 cpm) and SPA beads (20 mg/ml) were reconstituted with assay buffer containing 2.5% (w/v) alpha-cyclodextrin. […]
DTAB (100 μl, 1% w/v in assay buffer) was added to the non-specific binding wells. […] Following incubation, the plate was transferred directly to a TopCount™ scintillation counter and radioactivity detected. Non-specific binding was determined in the absence of specific rabbit antisera. Cyclic AMP levels were determined using log/linear analysis with reference to the standard curve. […]
Chinese hamster ovary cells were seeded at a density of 100,000 cells per well and cultured overnight to confluence in Viewplates as described under the methods section. […] The cell culture supernatant was not removed before the cell lysis step. cAMP levels were measured with the SPA radioimmunoassay procedure.

[3] = 1% lysis reagent, 0.2 pmol cAMP/well
[4] = 1% lysis reagent, 0.4 pmol cAMP/well
[5] = 1% lysis reagent, 0.8 pmol cAMP/well
[6] = 1% lysis reagent, 1.6 pmol cAMP/well
[7] = 1% lysis reagent, 3.2 pmol cAMP/well
[8] = 1% lysis reagent, 6.4 pmol cAMP/well
[9] = 1% lysis reagent, 12.8 pmol cAMP/well
[10] = 1% lysis reagent, NSB (no specific antisera)
[11] = 1% lysis reagent, Zero standard
[12] = 2% lysis reagent, 0.2 pmol cAMP/well
[13] = 2% lysis reagent, 0.4 pmol cAMP/well
[14] = 2% lysis reagent, 0.8 pmol cAMP/well
[15] = 2% lysis reagent, 1.6 pmol cAMP/well
[16] = 2% lysis reagent, 3.2 pmol cAMP/well
[17] = 2% lysis reagent, 6.4 pmol cAMP/well
[18] = 2% lysis reagent, 12.8 pmol cAMP/well
[19] = 2% lysis reagent, NSB (no specific antisera)
[20] = 2% lysis reagent, Zero standard

| SMILES | [125I]cAMP bound to SPA beads, counts per minute [1, 3] | [125I]cAMP bound to SPA beads, counts per minute [1, 4] | [125I]cAMP bound to SPA beads, counts per minute [1, 5] | [125I]cAMP bound to SPA beads, counts per minute [1, 6] | [125I]cAMP bound to SPA beads, counts per minute [1, 7] | [125I]cAMP bound to SPA beads, counts per minute [1, 8] | [125I]cAMP bound to SPA beads, counts per minute [1, 9] | [125I]cAMP bound to SPA beads, counts per minute [1, 10] | [125I]cAMP bound to SPA beads, counts per minute [1, 11] | [125I]cAMP bound to SPA beads, counts per minute [1, 12] | [125I]cAMP bound to SPA beads, counts per minute [1, 13] | [125I]cAMP bound to SPA beads, counts per minute [1, 14] | [125I]cAMP bound to SPA beads, counts per minute [1, 15] | [125I]cAMP bound to SPA beads, counts per minute [1, 16] | [125I]cAMP bound to SPA beads, counts per minute [1, 17] | [125I]cAMP bound to SPA beads, counts per minute [1, 18] | [125I]cAMP bound to SPA beads, counts per minute [1, 19] | [125I]cAMP bound to SPA beads, counts per minute [1, 20] | restoration of antigen:antibody binding by different sequestrants [1] | also measured |
| --- | --- | --- | --- | --- | --- | --- | --- | --- | --- | --- | --- | --- | --- | --- | --- | --- | --- | --- | --- | --- |
| CC(C)(C)CC(C)(C)c1ccc(OCCOCC[N+](C)(C)Cc2ccccc2)cc1 [BZC, benzethonium chloride] | 644 cpm | 501 cpm | 473 cpm | 426 cpm | 261 cpm | 16 cpm | 6 cpm | 111 cpm | 951 cpm | 308 cpm | 338 cpm | 222 cpm | 156 cpm | 143 cpm | 96 cpm | 70 cpm | 117 cpm | 486 cpm |  |  |
| CCCCCCCCCCCC[N+](C)(C)CCCS(=O)(=O)[O-] [DDAPS, N-dodecyl-N,N-dimethyl-3-ammonio-1-propanesulphonate] | 969 cpm and 762 cpm | 849 cpm and 719 cpm | 725 cpm and 689 cpm | 610 cpm and 559 cpm | 425 cpm and 446 cpm | 311 cpm and 326 cpm | 204 cpm and 173 cpm | 181 cpm and 137 cpm | 1109 cpm and 906 cpm | 416 cpm and 423 cpm | 426 cpm and 370 cpm | 429 cpm and 350 cpm | 339 cpm and 290 cpm | 303 cpm and 252 cpm | 215 cpm and 194 cpm | 109 cpm and 115 cpm | 129 cpm and 130 cpm | 579 cpm and 510 cpm |  |  |
| CCCCCCCCCCCCOS(=O)(=O)[O-].[Na+] [SDS, sodium dodecyl sulphate] |  |  |  |  |  | 640 cpm | 394 cpm | 118 cpm | 1149 cpm |  |  |  |  |  |  |  |  |  |  | [125I]cAMP bound to SPA beads, counts per minute ([1]; 1% lysis reagent, 0.2 pmol cAMP/well, sulphate): 1052 cpm and 1128 cpm; [125I]cAMP bound to SPA beads, counts per minute ([1]; 1% lysis reagent, 0.4 pmol cAMP/well, sulphate): 973 cpm and 1052 cpm; [125I]cAMP bound to SPA beads, counts per minute ([1]; 1% lysis reagent, 0.8 pmol cAMP/well, sulphate): 913 cpm and 973 cpm; [125I]cAMP bound to SPA beads, counts per minute ([1]; 1% lysis reagent, 1.6 pmol cAMP/well, sulphate): 859 cpm and 913 cpm; [125I]cAMP bound to SPA beads, counts per minute ([1]; 1% lysis reagent, 3.2 pmol cAMP/well, sulphate): 837 cpm and 859 cpm |
| OC[C@H]1O[C@@H]2O[C@H]3[C@H](O)[C@@H](O)[C@@H](O[C@H]4[C@H](O)[C@@H](O)[C@@H](O[C@H]5[C@H](O)[C@@H](O)[C@@H](O[C@H]6[C@H](O)[C@@H](O)[C@@H](O[C@H]7[C@H](O)[C@@H](O)[C@@H](O[C@H]8[C@H](O)[C@@H](O)[C@@H](O[C@H]1[C@H](O)[C@H]2O)O[C@@H]8CO)O[C@@H]7CO)O[C@@H]6CO)O[C@@H]5CO)O[C@@H]4CO)O[C@@H]3CO [beta-cyclodextrin] |  |  |  |  |  |  |  |  |  |  |  |  |  |  |  |  |  |  | less effective |  |
| C=C[C@@]1(C)CC(=O)[C@]2(O)[C@@]3(C)[C@@H](O)CCC(C)(C)[C@@H]3[C@H](O)[C@H](OC(C)=O)[C@@]2(C)O1 [forskolin, Forskolin] |  |  |  |  |  |  |  |  |  |  |  |  |  |  |  |  |  |  |  | Total cellular cAMP levels [2]: over 170 pmol/10^6 cells |
| OC[C@H]1O[C@@H]2O[C@H]3[C@H](O)[C@@H](O)[C@@H](O[C@H]4[C@H](O)[C@@H](O)[C@@H](O[C@H]5[C@H](O)[C@@H](O)[C@@H](O[C@H]6[C@H](O)[C@@H](O)[C@@H](O[C@H]7[C@H](O)[C@@H](O)[C@@H](O[C@H]8[C@H](O)[C@@H](O)[C@@H](O[C@H]9[C@H](O)[C@@H](O)[C@@H](O[C@H]1[C@H](O)[C@H]2O)O[C@@H]9CO)O[C@@H]8CO)O[C@@H]7CO)O[C@@H]6CO)O[C@@H]5CO)O[C@@H]4CO)O[C@@H]3CO [gamma cyclodextrin, gamma-cyclodextrin] |  |  |  |  |  |  |  |  |  |  |  |  |  |  |  |  |  |  | restored binding to an optimal degree |  |

From US6900019B1, “In-situ cell extraction and assay method” (Amersham Biosciences UK Limited, priority 1997, dated 2005)
